Source: patent publication US20100041089A1, “IMPROVED METHOD FOR DETECTING CHEMICAL […]” (priority 2006, published 2010)

System: yeast genes (expressed mRNA)
Test: DNA chip measurement of expressed mRNA of yeast genes after culture with a toxic chemical substance
Assay type: cell-based, Saccharomyces cerevisiae S288C
How it was run: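 S. cerevisiae S288C grown at 25 °C in YPD, exposed in log phase for 2 h to a toxicant at growth-inhibiting, non-lethal concentration. Cy3/Cy5-labelled cDNA from poly(A) mRNA hybridized to whole-genome chip at 65 °C >12 h. Ratio to untreated control, ≥2 significant.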

## S=C([S-])NCCNC(=S)[S-].[Zn+2] [(11), Zinc N,N′-ethylenebis(dithiocarbamate)]
Yeast gene YAL053W, cultured two hours with substance
  The level of expressed mRNA in the presence of chemical substance/The level of expressed mRNA in the absence of chemical substance: 2.3
Yeast gene YAR028W, cultured two hours with substance
  The level of expressed mRNA in the presence of chemical substance/The level of expressed mRNA in the absence of chemical substance: 0.9
Yeast gene YBL048W, cultured two hours with substance
  The level of expressed mRNA in the presence of chemical substance/The level of expressed mRNA in the absence of chemical substance: 2.0
Yeast gene YBL107C, cultured two hours with substance
  The level of expressed mRNA in the presence of chemical substance/The level of expressed mRNA in the absence of chemical substance: 2.9
Yeast gene YBR008C (detoxification protein gene)
  The level of expressed mRNA in the presence of chemical substance/The level of expressed mRNA in the absence of chemical substance: 9.4
Yeast gene YBR072W (stress protein genes)
  The level of expressed mRNA in the presence of chemical substance/The level of expressed mRNA in the absence of chemical substance: 6.3
Yeast gene YBR096W, cultured two hours with the chemical substance
  The level of expressed mRNA in the presence of chemical substance/The level of expressed mRNA in the absence of chemical substance: 1.2
Yeast gene YBR269C, cultured two hours with substance
  The level of expressed mRNA in the presence of chemical substance/The level of expressed mRNA in the absence of chemical substance: 1.2
Yeast gene YCR102C, cultured two hours with substance
  The level of expressed mRNA in the presence of chemical substance/The level of expressed mRNA in the absence of chemical substance: 13.5
Yeast gene YDL023C, cultured two hours with the chemical substance
  The level of expressed mRNA in the presence of chemical substance/The level of expressed mRNA in the absence of chemical substance: 3.5
Yeast gene YDL072C, cultured two hours with substance
  The level of expressed mRNA in the presence of chemical substance/The level of expressed mRNA in the absence of chemical substance: 1.4
Yeast gene YDL169C, cultured two hours with substance
  The level of expressed mRNA in the presence of chemical substance/The level of expressed mRNA in the absence of chemical substance: 1.2
Yeast gene YDL204W, cultured two hours with substance
  The level of expressed mRNA in the presence of chemical substance/The level of expressed mRNA in the absence of chemical substance: 3.2
Yeast gene YDL218W, cultured two hours with substance
  The level of expressed mRNA in the presence of chemical substance/The level of expressed mRNA in the absence of chemical substance: 5.7
Yeast gene YDL222C, cultured two hours with substance
  The level of expressed mRNA in the presence of chemical substance/The level of expressed mRNA in the absence of chemical substance: 2.6
Yeast gene YDR031W, cultured two hours with substance
  The level of expressed mRNA in the presence of chemical substance/The level of expressed mRNA in the absence of chemical substance: 1.2
Yeast gene YDR070C, cultured two hours with substance
  The level of expressed mRNA in the presence of chemical substance/The level of expressed mRNA in the absence of chemical substance: 4.1
Yeast gene YDR077W (stress protein genes)
  The level of expressed mRNA in the presence of chemical substance/The level of expressed mRNA in the absence of chemical substance: 6.8
Yeast gene YDR330W, cultured two hours with substance
  The level of expressed mRNA in the presence of chemical substance/The level of expressed mRNA in the absence of chemical substance: 0.9
Yeast gene YDR391C, cultured two hours with substance
  The level of expressed mRNA in the presence of chemical substance/The level of expressed mRNA in the absence of chemical substance: 1.9
Yeast gene YDR411C, cultured two hours with substance
  The level of expressed mRNA in the presence of chemical substance/The level of expressed mRNA in the absence of chemical substance: 1.3
Yeast gene YDR486C, cultured two hours with substance
  The level of expressed mRNA in the presence of chemical substance/The level of expressed mRNA in the absence of chemical substance: 1.4
Yeast gene YDR511W, cultured two hours with substance
  The level of expressed mRNA in the presence of chemical substance/The level of expressed mRNA in the absence of chemical substance: 1.2
Yeast gene YDR533C, cultured two hours with substance
  The level of expressed mRNA in the presence of chemical substance/The level of expressed mRNA in the absence of chemical substance: 7.7
Yeast gene YDR545W, cultured two hours with substance
  The level of expressed mRNA in the presence of chemical substance/The level of expressed mRNA in the absence of chemical substance: 0.7
Yeast gene YEL001C, cultured two hours with substance
  The level of expressed mRNA in the presence of chemical substance/The level of expressed mRNA in the absence of chemical substance: 1.2
Yeast gene YEL033W, cultured two hours with the chemical substance
  The level of expressed mRNA in the presence of chemical substance/The level of expressed mRNA in the absence of chemical substance: 1.2
Yeast gene YER004W, cultured two hours with substance
  The level of expressed mRNA in the presence of chemical substance/The level of expressed mRNA in the absence of chemical substance: 2.2
Yeast gene YER035W, cultured two hours with substance
  The level of expressed mRNA in the presence of chemical substance/The level of expressed mRNA in the absence of chemical substance: 1.4
Yeast gene YER038C, cultured two hours with substance
  The level of expressed mRNA in the presence of chemical substance/The level of expressed mRNA in the absence of chemical substance: 0.6
Yeast gene YER079W, cultured two hours with substance
  The level of expressed mRNA in the presence of chemical substance/The level of expressed mRNA in the absence of chemical substance: 2.1
Yeast gene YER106W, cultured two hours with substance
  The level of expressed mRNA in the presence of chemical substance/The level of expressed mRNA in the absence of chemical substance: 1.0
Yeast gene YER158C, cultured two hours with substance
  The level of expressed mRNA in the presence of chemical substance/The level of expressed mRNA in the absence of chemical substance: 2.3
Yeast gene YER163C, cultured two hours with substance
  The level of expressed mRNA in the presence of chemical substance/The level of expressed mRNA in the absence of chemical substance: 1.6
Yeast gene YER175C, cultured two hours with substance
  The level of expressed mRNA in the presence of chemical substance/The level of expressed mRNA in the absence of chemical substance: 1.1
Yeast gene YFL006W, cultured two hours with substance
  The level of expressed mRNA in the presence of chemical substance/The level of expressed mRNA in the absence of chemical substance: 1.2
Yeast gene YFL010C, cultured two hours with substance
  The level of expressed mRNA in the presence of chemical substance/The level of expressed mRNA in the absence of chemical substance: 1.4
Yeast gene YFL024C, cultured two hours with substance
  The level of expressed mRNA in the presence of chemical substance/The level of expressed mRNA in the absence of chemical substance: 0.6
Yeast gene YFL032W, cultured two hours with substance
  The level of expressed mRNA in the presence of chemical substance/The level of expressed mRNA in the absence of chemical substance: 1.1
Yeast gene YFR015C, cultured for two hours with substance
  The level of expressed mRNA in the presence of chemical substance/The level of expressed mRNA in the absence of chemical substance: 3.9
Yeast gene YGL037C, cultured two hours with substance
  The level of expressed mRNA in the presence of chemical substance/The level of expressed mRNA in the absence of chemical substance: 3.9
Yeast gene YGL047W, cultured two hours with substance
  The level of expressed mRNA in the presence of chemical substance/The level of expressed mRNA in the absence of chemical substance: 1.9
Yeast gene YGL053W, cultured two hours with substance
  The level of expressed mRNA in the presence of chemical substance/The level of expressed mRNA in the absence of chemical substance: 1.3
Yeast gene YGL121C, cultured two hours with substance
  The level of expressed mRNA in the presence of chemical substance/The level of expressed mRNA in the absence of chemical substance: 6.1
Yeast gene YGL136C, cultured two hours with substance
  The level of expressed mRNA in the presence of chemical substance/The level of expressed mRNA in the absence of chemical substance: 1.4
Yeast gene YGR101W, cultured two hours with substance
  The level of expressed mRNA in the presence of chemical substance/The level of expressed mRNA in the absence of chemical substance: 2.0
Yeast gene YGR110W, cultured two hours with substance
  The level of expressed mRNA in the presence of chemical substance/The level of expressed mRNA in the absence of chemical substance: 0.5
Yeast gene YGR130C, cultured two hours with substance
  The level of expressed mRNA in the presence of chemical substance/The level of expressed mRNA in the absence of chemical substance: 0.8
Yeast gene YGR146C, cultured two hours with substance
  The level of expressed mRNA in the presence of chemical substance/The level of expressed mRNA in the absence of chemical substance: 0.9
Yeast gene YGR154C, cultured two hours with substance
  The level of expressed mRNA in the presence of chemical substance/The level of expressed mRNA in the absence of chemical substance: 1.5
Yeast gene YGR221C, cultured two hours with substance
  The level of expressed mRNA in the presence of chemical substance/The level of expressed mRNA in the absence of chemical substance: 0.5
Yeast gene YHR029C, cultured two hours with substance
  The level of expressed mRNA in the presence of chemical substance/The level of expressed mRNA in the absence of chemical substance: 3.8
Yeast gene YHR138C, cultured two hours with substance
  The level of expressed mRNA in the presence of chemical substance/The level of expressed mRNA in the absence of chemical substance: 1.6
Yeast gene YHR199C, cultured two hours with substance
  The level of expressed mRNA in the presence of chemical substance/The level of expressed mRNA in the absence of chemical substance: 1.9
Yeast gene YHR209W, cultured two hours with substance
  The level of expressed mRNA in the presence of chemical substance/The level of expressed mRNA in the absence of chemical substance: 3.3
Yeast gene YIL023C, cultured two hours with substance
  The level of expressed mRNA in the presence of chemical substance/The level of expressed mRNA in the absence of chemical substance: 1.1
Yeast gene YIL024C, cultured two hours with substance
  The level of expressed mRNA in the presence of chemical substance/The level of expressed mRNA in the absence of chemical substance: 0.6
Yeast gene YIL041W, cultured two hours with substance
  The level of expressed mRNA in the presence of chemical substance/The level of expressed mRNA in the absence of chemical substance: 1.4
Yeast gene YIL087C, cultured two hours with substance
  The level of expressed mRNA in the presence of chemical substance/The level of expressed mRNA in the absence of chemical substance: 2.8
Yeast gene YIL117C, cultured two hours with substance
  The level of expressed mRNA in the presence of chemical substance/The level of expressed mRNA in the absence of chemical substance: 1.8
Yeast gene YIL136W, mitochondria-located protein gene
  The level of expressed mRNA in the presence of chemical substance/The level of expressed mRNA in the absence of chemical substance: 4.8
Yeast gene YIR024C
  The level of expressed mRNA in the presence of chemical substance/The level of expressed mRNA in the absence of chemical substance: 6.3
Yeast gene YJL020C, cultured two hours with substance
  The level of expressed mRNA in the presence of chemical substance/The level of expressed mRNA in the absence of chemical substance: 0.6
Yeast gene YJL057C, cultured two hours with substance
  The level of expressed mRNA in the presence of chemical substance/The level of expressed mRNA in the absence of chemical substance: 2.0
Yeast gene YJL066C, cultured two hours with substance
  The level of expressed mRNA in the presence of chemical substance/The level of expressed mRNA in the absence of chemical substance: 0.8
Yeast gene YJL082W, cultured two hours with substance
  The level of expressed mRNA in the presence of chemical substance/The level of expressed mRNA in the absence of chemical substance: 1.0
Yeast gene YJL108C, cultured two hours with substance
  The level of expressed mRNA in the presence of chemical substance/The level of expressed mRNA in the absence of chemical substance: 1.0
Yeast gene YJL144W, cultured two hours with substance
  The level of expressed mRNA in the presence of chemical substance/The level of expressed mRNA in the absence of chemical substance: 3.0
Yeast gene YJL149W, cultured two hours with substance
  The level of expressed mRNA in the presence of chemical substance/The level of expressed mRNA in the absence of chemical substance: 1.5
Yeast gene YJL151C, cultured two hours with substance
  The level of expressed mRNA in the presence of chemical substance/The level of expressed mRNA in the absence of chemical substance: 1.0
Yeast gene YJL152W, cultured two hours with substance
  The level of expressed mRNA in the presence of chemical substance/The level of expressed mRNA in the absence of chemical substance: 1.0
Yeast gene YJL161W, cultured two hours with substance
  The level of expressed mRNA in the presence of chemical substance/The level of expressed mRNA in the absence of chemical substance: 3.7
Yeast gene YJL171C, cultured two hours with substance
  The level of expressed mRNA in the presence of chemical substance/The level of expressed mRNA in the absence of chemical substance: 2.2
Yeast gene YJL186W, cultured two hours with substance
  The level of expressed mRNA in the presence of chemical substance/The level of expressed mRNA in the absence of chemical substance: 0.6
Yeast gene YJR008W, cultured two hours with substance
  The level of expressed mRNA in the presence of chemical substance/The level of expressed mRNA in the absence of chemical substance: 1.4
Yeast gene YJR054W, cultured two hours with substance
  The level of expressed mRNA in the presence of chemical substance/The level of expressed mRNA in the absence of chemical substance: 0.7
Yeast gene YJR085C, cultured two hours with substance
  The level of expressed mRNA in the presence of chemical substance/The level of expressed mRNA in the absence of chemical substance: 2.9
Yeast gene YKL034W, cultured two hours with substance
  The level of expressed mRNA in the presence of chemical substance/The level of expressed mRNA in the absence of chemical substance: 1.2
Yeast gene YKL070W
  The level of expressed mRNA in the presence of chemical substance/The level of expressed mRNA in the absence of chemical substance: 10.4
Yeast gene YKL071W, cultured two hours with substance
  The level of expressed mRNA in the presence of chemical substance/The level of expressed mRNA in the absence of chemical substance: 40.3
